Measurements: PMC9428891 (Frontiers in Pharmacology, 2022)

Key:
[1] = Viability of human neutrophils (WST-1 cytotoxicity test); type: cell-based; settings: human neutrophils 1 × 10^7 cells/ml
Description: A cytotoxicity test was performed to determine the adverse effect of tested compounds on humans using neutrophil cells.
The absorbance is the mean of five experimental replicates.
The % viability of neutrophils was measured by the following formula: Percentage viability: […].

[2] = molecular target: T1, acetylcholinesterase (AChE) (Electrophorus electricus, UniProt O42275); test: biochemical; settings: triplicate
T1 construct: purchased Sigma Aldrich C3389-2KU
T1 sequence (O42275 24-633): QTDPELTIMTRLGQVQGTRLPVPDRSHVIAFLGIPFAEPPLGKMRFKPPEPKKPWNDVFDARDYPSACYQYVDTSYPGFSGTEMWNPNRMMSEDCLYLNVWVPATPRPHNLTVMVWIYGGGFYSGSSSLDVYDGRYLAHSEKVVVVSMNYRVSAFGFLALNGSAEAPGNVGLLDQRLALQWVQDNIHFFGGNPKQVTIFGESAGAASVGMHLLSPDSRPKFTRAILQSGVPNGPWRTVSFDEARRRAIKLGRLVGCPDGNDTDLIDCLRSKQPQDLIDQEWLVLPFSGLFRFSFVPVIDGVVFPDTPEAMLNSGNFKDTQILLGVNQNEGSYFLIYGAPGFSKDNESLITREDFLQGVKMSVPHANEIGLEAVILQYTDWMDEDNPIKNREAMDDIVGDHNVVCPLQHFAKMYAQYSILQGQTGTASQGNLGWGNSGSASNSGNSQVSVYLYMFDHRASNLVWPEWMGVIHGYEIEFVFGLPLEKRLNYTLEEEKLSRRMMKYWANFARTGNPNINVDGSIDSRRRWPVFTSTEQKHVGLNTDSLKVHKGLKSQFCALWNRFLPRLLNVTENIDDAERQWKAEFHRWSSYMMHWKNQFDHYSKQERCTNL
Description: AChE inhibitory activity was evaluated as described previously with few modifications using a microtiter plate reader (Molecular Device, CA, United States) ([Hasan et al., 2005]). Initially, 100 mM of sodium phosphate buffer (140 µl) pH 8, 0.25 mM DTNB (10 µl), 0.5 mM of synthetic compounds dissolved in 20 µl of ethanol and AChE (20 µl) were mixed and incubated for 15–20 min at room temperature in a microtiter plate. Finally, 10 µl of substrate ACh (0.4 mM) was added and incubated at room temperature for 4–6 min. The reaction started after the addition of ACh was hydrolyzed by AChE in the presence of DTNB; a yellow-colored 5-thio-2-nitrobenzoate anion was formed, which indicates the reaction completion and was read at a wavelength of 412 nm. All experiments were performed in triplicate and were analyzed using the SoftMax Pro6.3 program (Molecular Device, CA, United States).
Percentage inhibition was calculated by % inhibition = (O.D control-O.D test well) / O.D control)×100.
IC50 was determined at various concentrations, and EZ-Fit EK was employed to calculate the IC50 values of the test compounds (Perrella Scientific Inc., Amherst, MA, United States).
In the current study, electric eel AChE was used in the laboratory to perform an AChE inhibitory assay, but for computational analysis, we used hAChE (4EY6). Therefore, homology modeling was performed to check the similarity between the electric eel and hAChE.

[3] = molecular target: T1, acetylcholinesterase (AChE); test: biochemical; design: V max / V maxapp: unit not given here; settings: for K m app / V maxapp: in the presence of compound; for K m: substrate ACh; for Ki: read-out: K i ± SEM
Description: Enzyme-substrate (ES) is the complex of AChE and acetylcholine, while P represents the product formed after the reaction’s completion. Dissociation constant values were calculated through Dixon plots, their secondary replots, and the Lineweaver-Burk plot ([Khan et al., 2021]).
The values of K m, K i, and V max were determined from Dixon and Lineweaver-Burk plots using no linear regression equation.
GraFit software ([Khan et al., 2021]) was utilized for plotting graphs. The values of the correlation coefficients, slopes, intercepts, and their standard errors were determined by the linear regression equation using the same program.
During kinetic studies, the reaction rate was measured and the effect of different concentrations of a substrate on the enzyme was investigated. The kinetic study of enzymes helped to determine the catalytic mechanism of enzymes. […] The rate of reaction [V] was plotted against various substrate concentrations [S] at constant enzyme concentration. Initially, the rate of reaction [V] increases as substrate concentration increases, and at higher [S], the enzyme becomes saturated, and the rate of reaction reaches V max, which is referred to as the maximum rate of reaction.
The dissociation constant K i values were found using three different methods. Primarily, from the Lineweaver-Burk plot, which is the reciprocal rate of reaction (1/V) versus reciprocal of substrate concentration (1/S), helps to determine the effect of inhibitor on the values of K m and V max. Secondly, the Dixon plot is the plot between the reciprocal of initial velocities (1/V) versus different concentrations of the compound. Finally, from secondary replot, the slopes of each line versus various concentrations of all compounds. Kinetic studies were carried out to determine the inhibition type, which helps to specify the mechanism of action of enzyme inhibition and the inhibitor binding moieties.

[4] = test system: isolated rabbit jejunum, spontaneous contractions; test: Spasmolytic activity on spontaneously contracting isolated rabbit jejunum; settings: mean ± SEM, n = 3
Description: (§1) The spasmolytic activity of the inhibitors was evaluated using isolated contracting rabbit jejunum ([Rahman et al., 2019]). Rabbits used in the current study were provided by Aga Khan Medical University, Karachi, Pakistan, weighing between 1.5 and 2.0 kg. The standard operating protocol has already been defined ([Choudhary et al., 2005]).
(§2) Calcium antagonistic activity was also performed and confirmed the relaxation of 80 mM K^+ produced contraction.

[5] = test system: isolated rabbit jejunum, K+-induced contractions; test: Calcium antagonistic activity: relaxation of high K+ (80 mM) contracted isolated rabbit jejunum; settings: mean ± SEM, n = 3
Description: as §1, §2
Schiff bases were also evaluated at high K^+ (80 mM) contracted isolated rabbit jejunum preparations for their spasmolytic effect, which was relaxed by all compounds (Table 3). […] Schiff bases represent a class of compounds showing a wide range of bioactivities, such as antimicrobial and anticancer activities. Schiff base compounds are the products of primary amines and condensation of carbonyl compounds, which are extensively investigated owing to their wide range of biomedical applications ([Sztanke et al., 2013]). […] The antispasmodic and Ca^+2 antagonist activity of Schiff base compounds was first reported and could be linked to the azomethine bond.

Row | Compound | viability at 30 min, 696.005 µM ([1]; Conc. 696.005 µM) [%] | IC50 [2] [µM] | Type of inhibition [3] | K m app [3] [µM] | K m [3] [µM] | Effective Dose (ED50), spasmolytic effect, Spontaneous [4] [µM] | Effective Dose (ED50), spasmolytic effect, High K+ [5] | viability at 30 min, 456.058 µM ([1]; neutrophils isolated from human whole blood, Conc. 456.058 µM) [%] | V max [3] | V maxapp [3] | Ki [3] [µM] | viability at 30 min, 539.913 µM ([1]; neutrophils isolated from human whole blood, Conc. 539.913 µM) [%] | viability at 30 min, 501.907 µM ([1]; neutrophils isolated from human whole blood, Conc. 501.907 µM) [%] | viability at 30 min, 491.014 µM ([1]; neutrophils isolated from human whole blood, Conc. 491.014 µM) [%]
1 | COc1ccc2c3c1O[C@H]1C[C@@H](O)C=C[C@@]31CCN(C)C2 [Galanthamine, reference compound] | 96 ± 2 | – | – | – | – | – | – | – | – | – | – | – | – | –
2 | CCSc1nc2ccccc2n1CC(=O)N/N=C/c1c2ccccc2cc2ccccc12 [Compound 14] | – | 51.23 ± 0.2 | Non-competitive | 120 | 120 | 592.876 ± 0.12 | 980.526 ± 0.05 µM | 66.6 ± 4 | – | – | – | – | – | –
3 | CCSc1nc2ccccc2n1CC(=O)N/N=C/c1cccc(O)c1O [Compound 13] | – | 50.58 ± 0.3 | Non-competitive | 120 | 120 | 458.926 ± 0.01 | 836.865 ± 0.05 µM | – | 5.0 | 2.3 | 19 ± 1.7 | 77.22 ± 0.5 | – | –
4 | CCSc1nc2ccccc2n1CC(=O)N/N=C\c1ccc(OC)cc1OC [Compound 11] | – | 37.64 ± 0.2 | Non-competitive | 120 | 120 | 326.239 ± 0.01 | 727.765 ± 0.09 µM | – | 5.0 | 2.6 | 14 ± 1.6 | – | 98 ± 1 | –
5 | CCSc1nc2ccccc2n1CC(=O)N/N=C/c1ccc(Cl)cc1Cl [Compound 10] | – | 51.23 ± 0.2 | Non-competitive | 120 | 120 | – | 1,620.347 ± 0.04 µM | – | 5.0 | 2.1 | 17 ± 1.3 | – | – | 90.1 ± 2.3
